Experiment [1] has as its system subcutaneous 9L gliosarcoma. In words: Subcutaneous 9L gliosarcoma tumor growth delay. The format is in vivo, rat (male Fischer 344). The following applies: for Subcutaneous 9L Tumor Growth Delay, Mean Days: Table III, days to 500 mm^3 vs control (19.5 ± 0.5 days), CDDP 8 mg/kg day 7, BCNU 3 x 15, CTX or IFOS 3 x 100 mg/kg, UPHS 8 ml/kg; for Effectiveness against subcutaneous 9L tumors: relative statement among BCNU, CTX, CDDP, IFOS; for Increase in tumor growth delay by prior administration of UPHS: UPHS + drug vs drug alone. As for the experimental part:
The 9L gliosarcoma (9L) cells were obtained as a gift of 9L/SF gliosarcoma cells from Dr. Dennis Dean, University of California, San Francisco. These cells were maintained in culture in .varies.-MEM (Grand Island Biological Co., Grand Island, N.Y.) and supplemented with 10% fetal bovine serum (Sterile Systems, Inc., Logan, Utah) and with antibiotics. The 9L cells (4×10^4) in 10 μL of media without serum were implanted intracranially in male Fischer 344 rats (Taconic Farms, Germantown, N.Y.) weighing 200-250 gm on day 0. Each rat was anesthetized with sodium pentobarbital. A midline scalp incision was made and a hole was bored through the skull with 23 gauge needle at a point 2 mm lateral to the midline. The cell suspension was injected into the right frontal lobe at a depth of 3 mm from the dural surface. The needle was removed and the hole filled with dental cement. The scalp was sealed with a surgical clip. Two days later 9L cells (2×10^6) were implanted subcutaneously into the flank of each animal. When the tumors were approximately 100 mm^3 in volume, 7 days after tumor cell implantation, 8 ml/kg of UPHS was injected via the tail vein. After injecting the UPHS, administration of chemotherapeutic agents was initiated. […] BCNU therapy consisted of three 15 mg/kg BCNU doses administered by intraperitoneal injection days 7, 9 and 11. CTX and ifosfamide (IFOS) therapy consisted of three 100 mg/kg CTX or IFOS doses administered by intraperitoneal injection on days 7, 9 and 11. For the BCNU, CTX and IFOS therapies, UPHS was intravenously administered prior to each chemotherapeutic agent injection on days 7, 9 and 11. The IFOS was purchased from the Dana-Farber Cancer Institute. Survival of animals was monitored daily. Animals that were moribund or unable to reach food or water were killed by CO2 inhalation.
The progress of each subcutaneous tumor was measured 3 times/week until it reached a volume of 500 mm^3. Tumor growth delay was calculated as the number of days for each individual tumor to reach 500 mm^3 compared with untreated controls. Each treatment group had 4 animals and the experiment was repeated twice. Days of tumor growth delay are the mean ±SE for the treatment group compared with the control.

For experiment [2], the system named is FSaIIC fibrosarcoma. In words: FSaIIC fibrosarcoma tumor growth delay. The experiment is classed as in vivo, mouse (male C3H/FeJ mice). The following applies: for Tumor growth delay, UPHS/Air: UPHS 0.3 ml (12 ml/kg) i.v. immediately before drug; for Tumor growth delay, UPHS/Air / Tumor growth delay, alkylating agent (alone): air breathing; for Increase in tumor growth delay by addition of UPHS: UPHS + drug (air) vs drug alone; for Effect of carbogen breathing on tumor growth delay produced by drug / Tumor growth delay, Carbogen: no UPHS; for Effect of carbogen breathing on tumor growth delay produced by drug: vs drug with air; for Tumor growth delay, Carbogen: drug + carbogen breathing 6 hours; for Tumor growth delay, alkylating agent (alone): drug alone i.p. As for the experimental part: The FsaII fibrosarcoma (FSaIIC), adapted for growth in culture, was employed. See Rice, L. et al., "The Radiosensitivity of a Murine Fibrosarcoma as Measured by Three Cell Survival Assays", Br. J. Cancer 41:240-245 (1980). 2×10^6 FSaIIC cells, prepared from a brei of several stock tumors, were implanted intramuscularly into the legs of 8- to 10-week old male C3H/FeJ mice (The Jackson Laboratory, Bar Harbor, Me.). When the tumors were approximately 100 mm^3 in volume, 0.3 ml (12 ml/kg; 1.32 gm protein/kg) of UPHS was injected via the tail vein. The UPHS solution was obtained from Biopure Corporation, Boston, Mass. and was a polymerized form of a highly purified bovine hemoglobin solution. It contained 11±2 gm/deciliter of bovine hemoglobin. […] It contained sodium (145 mM/L), chloride (140 mM/L) and potassium (4.0 mM/L) in a buffer solution (pH 7.8±0.4). […] DeVenuto, F., "Evaluation of Human and Bovine Modified-Hemoglobin Solution as Oxygen-Carrying Fluid for Blood Volume Replacement", Biomat. Art. Cells, Art. Org. 16:77-82 (1988); and Winslow, R. M., "Optimal Hematologic Variables for Oxygen Transport Including p50, Hemoglobin Cooperativity, Hematocrit, Acid-Base Atatus, and Cardiac Function", Biomat., Art. Cells and Art. Organs 16:149-172 (1988).
CTX and PAM were purchased as pure powders from Sigma Chemical Company, St. Louis, Miss. […] BCNU (Carmustine) was purchased from the Dana-Farber Cancer Institute Pharmacy.
The mice were allowed to breathe air or were placed in a circulating atmosphere of 95% O2 /5% CO2 (carbogen) for six hours and then removed to air. The progress of each tumor was measured three times weekly until it reached a volume of 500 mm^3. Tumor growth delay was calculated as the days taken by each individual tumor to reach 500 mm^3 compared to the untreated controls. […] Days of tumor growth Relay are the mean ±SE for the treatment group compared to the control.
Statistical comparisons were made with Dunn Multiple Comparisons Test.
The procedures and materials of Example I were employed except that Fluosol-DA was substituted for UPHS. Fluosol-DA was obtained from Alpha Therapeutics Corporation and is an emulsion consisting of […] (w/v) of the following perfluorocarbons: 7 parts perfluorodecalin, 3 parts per perfluorotripropyliamine; Pluronic F-68 (2.7%, w/v); yolk phospholipids (0.4% w/v) as emulsifiers; and glycerol (0.8%, w/v) as a cryoprotective agent. The annex solution (electrolyte/bicarbonate solution) furnished the preparation with physiological osmolarity.
The specific procedures employing Fluosol-DA have been described previously. See Teicher, B. A. et al., "Approaches to Defining the Mechanism of Fluosol-DA 20%/Carbogen Enhancement of Melphalan Antitumor Activity", Cancer Res. 47:513-518 (1987); Teicher, B. A. et al., "Differential Enhancement of Melphalan Cytotoxicity in Tumor and Normal t+Tissue by Fluosol-DA and Oxygen Breathing", Int. J. Cancer 36:585-589 (1985); and Teicher, B. A. et al., "Effects of Various Oxygenation Conditions on the Enhancement by Fluosol-DA of Melphalan Antitumor Activity", Cancer Res. 47:5036-5041 (1987).

The test system of experiment [3] is FSaIIC fibrosarcoma. The following applies: cited from earlier work.
Where [4] appears, read: PAM 10, CTX 150, CDDP 10, BCNU 15 mg/kg.
Where [5] appears, read: UPHS + carbogen 6 h + drug vs drug alone.

Structures are written as SMILES. “And” between values parts separate entries of the source, which are not always exact repeats. Equal entries are not always repeated.

`N.N.[Cl][Pt][Cl]` [CDDP, cis-diaminodichloroplatinum(II)]: in experiment [1], the “Subcutaneous 9L Tumor Growth Delay, Mean Days” value turned out to be 9.4 ± 0.8 days; the “Effectiveness against subcutaneous 9L tumors” value (shortened to “Effectiveness”) was “very effective against both subcutaneous and intracranial 9L tumors”. Also, the “Effect of UPHS on tumor growth delay produced by drug” value in experiment [1] (UPHS prior to single dose of CDDP) is reported as “no substantial effect on the tumor growth delay”. For the same compound, in the experiment with FSaIIC fibrosarcoma [2] (setting [4]), the “Tumor growth delay, UPHS/Air” value stood at 9.6 ± 1.1 days; the “Tumor growth delay, Carbogen” value was 7.6 ± 0.3 days; the “Tumor growth delay, alkylating agent (alone)” value was 7.4 ± 0.8 days and 7.4 days. Further, the “Tumor growth delay, UPHS/Carbogen” value in the experiment with FSaIIC fibrosarcoma [2] (UPHS 12 ml/kg i.v. + drug + carbogen breathing 6 hours, PAM 10, CTX 150, CDDP 10, BCNU 15 mg/kg) is 14.1 ± 1.6 days and 14.1 days. The “Increase in tumor growth delay by combination of UPHS and carbogen” value (“Increase … of UPHS and carbogen” for short) in the experiment on FSaIIC fibrosarcoma [2] (setting [5]) is 1.9 fold. In addition, the “Increase in tumor growth delay by addition of UPHS” value (from here on “Increase … by addition of UPHS”) in the experiment on FSaIIC fibrosarcoma [2] turned out to be 1.3 fold. In addition, the “Effect of carbogen breathing on tumor growth delay produced by drug” value (from here on “Effect of carbogen breathing”) with FSaIIC fibrosarcoma [2] (carbogen 6 hours) was “no significant effect on the tumor growth delay”.

Consider `O=NN(CCCl)C(=O)NCCCl` [BCNU, N,N-bis(2-chloroethyl)-N-nitrosourea], for which, in experiment [1], the “Subcutaneous 9L Tumor Growth Delay, Mean Days” value amounted to 5.8 ± 0.5 days; the “Increase in tumor growth delay by prior administration of UPHS” value was determined as 1.3 fold; the “Effectiveness” value is listed as “least effective against subcutaneously growing 9L tumors”. Also, in the experiment with FSaIIC fibrosarcoma [2] (setting [4]), the “Tumor growth delay, UPHS/Air” value amounted to 3.8 ± 0.5 days; the “Tumor growth delay, Carbogen” value was determined as 3.3 ± 0.3 days; the “Tumor growth delay, alkylating agent (alone)” value is 2.5 ± 0.3 days and 2.5 days. Besides, in the experiment with FSaIIC fibrosarcoma [2], the “Increase … by addition of UPHS” value is reported as 1.5 fold. Further, the “Effect of carbogen breathing” value with FSaIIC fibrosarcoma [2] (carbogen 6 hours) is on record as “increased the tumor growth delay produced by BCNU to a small degree”. In the experiment on FSaIIC fibrosarcoma [2] (mouse, in vivo), the “Increase … of UPHS and carbogen” value came to 2.3 fold.

Consider `O=P1(N(CCCl)CCCl)NCCCO1` (stereo not drawn) [CTX, Cyclophosphamide], for which, in experiment [1], the “Subcutaneous 9L Tumor Growth Delay, Mean Days” value stood at 9.1 ± 0.7 days; the “Increase in tumor growth delay by prior administration of UPHS” value is recorded as 1.5 fold; the “Effectiveness” value is recorded as “very effective treatments for subcutaneously growing 9L tumors”. In the experiment on FSaIIC fibrosarcoma [3] (FSaIIC, CTX), the “Duration of carbogen breathing necessary for significant enhancement of growth delay” value is on record as “Six hours of carbogen breathing are necessary to obtain a significant enhancement in the growth delay”. Moreover, the “Tumor growth delay, with Fluosol-DA and carbogen” value with FSaIIC fibrosarcoma [2] (CTX 150 mg/kg + Fluosol-DA, carbogen 6 hours) is recorded as “about 12 days”. In the experiment with FSaIIC fibrosarcoma [2] (setting [4]), the “Tumor growth delay, UPHS/Air” value was 7.4 days and 7.4 ± 0.7 days; the “Tumor growth delay, Carbogen” value is given as 5.0 ± 0.5 days. Moreover, the “Increase … of UPHS and carbogen” value with FSaIIC fibrosarcoma [2] (setting [5]) is on record as 4.6 fold. The “Increase … by addition of UPHS” value in the experiment with FSaIIC fibrosarcoma [2] came out at 2.1 fold. The “Effect of carbogen breathing” value in the experiment on FSaIIC fibrosarcoma [2] (carbogen 6 hours) was “small increase in the tumor growth delay”.

Take `N[C@@H](Cc1ccc(N(CCCl)CCCl)cc1)C(=O)O` [PAM, Melphalan]: the “Effect of extending carbogen breathing to 6 hours on tumor growth delay” value in the experiment on FSaIIC fibrosarcoma [3] (PAM + Fluosol-DA, carbogen 6 hours) is recorded as “did not alter the tumor growth delay”. The “Tumor growth delay, PAM prepared in Fluosol-DA as a vehicle” value in the experiment with FSaIIC fibrosarcoma [3] (PAM in Fluosol-DA vehicle, carbogen breathing) is reported as “about 29.5 days”. In addition, in the experiment on FSaIIC fibrosarcoma [2] (PAM 10 mg/kg + Fluosol-DA, air), the “Tumor growth delay, with Fluosol-DA and air breathing” value was “about 6.5 days”. In addition, the “Increase … of UPHS and carbogen” value with FSaIIC fibrosarcoma [2] (setting [5]) was determined as 3.6 fold. For the same compound, in the experiment on FSaIIC fibrosarcoma [2], the “Increase … by addition of UPHS” value was 2.2 fold. Further, the “Effect of carbogen breathing” value in the experiment on FSaIIC fibrosarcoma [2] (carbogen 6 hours) is recorded as “small increase in tumor growth delay”. The “Tumor growth delay, Carbogen” value with FSaIIC fibrosarcoma [2] (setting [4]) is 4.0 ± 0.6 days.

The values above are taken from patent publication US5679638A, “Method for treating a tumor with a chemotherapeutic agent” (Biopure Corporation, priority 1993, dated 1997).
